# Values quoted from earlier work, collected in patent US9950967B2, “Titanium-containing formulation and method of preparation of titanium-containing formulation” (INTERMAG Sp. z.o.o., priority 2013, dated 2018).
# Test system: plants
# Details: I. Pais, J. Plant Nutr. 6:3-133, 1983
substance,measurement,value
titanium,increases the yield,10-20%
